Laboratory results: patent publication US20230071283A1, “COMPOSITIONS AND METHODS FOR SELECTIVE PROTEIN EXPRESSION” (Novartis AG, priority 2017, published 2023)
“Also recorded” adds a separate entry of the source.

Experiments:
[1] = biological target: T1, ERαFD furin degron domain fused to an anti-CD19 scFv CAR (Homo sapiens, UniProt P03372, G521R/L384M/M421G/N519S/T371A/Y537S); test: CAR expression by FACS in Jurkat T cells transduced with ERαFD furin degron-anti-CD19 scFv CAR; format: cell-based; conditions: 1 μM, 24 hours
T1 construct: signal peptide (CD8 leader) followed by Arg-Ser linker (N); furin cleavage site (C); anti-CD19 scFv CAR (CD8 hinge, 4-1BB, CD3zeta) (C); expressed in transfected cells; host or cells: Jurkat T cells, lentiviral transduction
T1 sequence (P03372 305-549 T371A/L384M/M421G/N519S/G521R/Y537S): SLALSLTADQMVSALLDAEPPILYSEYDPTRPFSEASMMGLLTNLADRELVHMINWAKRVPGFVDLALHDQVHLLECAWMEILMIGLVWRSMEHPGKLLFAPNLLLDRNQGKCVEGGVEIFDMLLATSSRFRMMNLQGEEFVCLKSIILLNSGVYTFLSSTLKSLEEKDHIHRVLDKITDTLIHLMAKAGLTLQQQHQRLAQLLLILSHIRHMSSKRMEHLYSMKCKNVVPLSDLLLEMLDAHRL

CD19 sCAR T cells [2] = test: Elimination of CD19 sCAR T cells by AP20187 (live/dead-violet dye, flow cytometry); format: cell-based, human; conditions: 16 hours at 37° C.
Description: (§1) CAR T cells were incubated in the presence of the indicated concentrations of AP20187 for 16 hours at 37° C. Dead cells were detected with live/dead-violet dye and quantified by flow cytometry. Only T cells that expressed the inducible caspase were eliminated (FMC63 iC9 or CD19 sCAR, as well as iC9 control CAR).
(§2) Elimination of CD19 CAR T cells. CD19 sCAR T cells were incubated in the presence of the indicated concentrations AP20187 for 16 hours at 37° C. Dead cells were detected with live/dead-violet dye and quantified by flow cytometry.

nontransduced T cells = test: AP20187 treatment of T cells not expressing inducible caspase-9; format: cell-based, human; conditions: 16 hours at 37° C.
Description: as §1, §2

CD19 sCAR T cells [3] = test: In vivo depletion of CD19 sCAR T cells by AP1903 in Nalm6-injected mice
Description: FIG. 40 is a series of flow cytometry graphs depicting that the suicide activation results in pheripheral depletion of the suicide CAR T cells. Mice were injected with Nalm6 cells and after 5 days were treated with 19 s CAR T cells. CD19s CAR T cells were sorted before injection based on scFV expression. Flow plots show peripheral T cells (CD3+, CD45+) on day 8 and day 26. CD19 sCAR T cells were depleted on day 10 by injection of AP1903 (10 mg/kg).
The quantification of T cells was done from several mice. Mice were treated with AP1903 on day 10 to deplete sCAR T cells.

universal sCAR T cells = test: Depletion of universal sCAR T cells by AP1903 in BT mice (qPCR, peripheral blood); format: in vivo; conditions: 4 weeks after AP1903 treatment (3 daily injections with 10 mg/kg)
Description: FIG. 44 is a schematic timeline of the experimental design of the in vivo experiment of the present invention. Using BT (bone marrow, liver, and thymus) mice for assessment of universal sCAR function in a non-oncology mouse model. Human fetal bone marrow and thymus were implanted into NSG mice on day −91. Validation of engraftment was done by flow cytometry on day −27. Universal T cells expressing CD19 sCAR T cells were injected on day 0, B cell depletion was assessed on day 10 and mice were treated with AP1903 (3 daily injections with 10 mg/kg). sCAR survival was assessed with qPCR.
A qPCR from peripheral blood WPRE copy number was performed with a gDNA, 4 weeks after AP1903 treatment.

[4] = biological target: T2, FKBPFD furin degron domain fused to an anti-CD19 scFv CAR (Homo sapiens, UniProt P62942, F37V); test: CAR expression by FACS in Jurkat T cells transduced with FKBPFD furin degron-anti-CD19 scFv CAR; format: cell-based; conditions: 1 μM Shield1
T2 construct: signal peptide (CD8 leader) (N); furin cleavage site (C); anti-CD19 scFv CAR (CD8 hinge, 4-1BB, CD3zeta) (C); expressed in transfected cells; host or cells: Jurkat T cells, lentiviral transduction
T2 sequence (P62942 with tags, fused parts or gaps F37V): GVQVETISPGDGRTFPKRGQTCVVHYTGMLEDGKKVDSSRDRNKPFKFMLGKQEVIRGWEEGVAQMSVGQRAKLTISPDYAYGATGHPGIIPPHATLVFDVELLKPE
Description: The scFvs used in the CAR constructs that were assessed in Examples 3 were independently synthesized based on an anti-CD19 scFv sequence described above. […] The proteins used in the furin-degron constructs that were assessed in Examples 4-5 were independently synthesized based on publicly available sequence data.
Jurkat cell lines were transduced by spinoculation with lentiviral supernatant from 293T cells transfected with pELPS using the protein-furin domain regulated plasmid DNA.
Trimethoprim (TMP) was resuspended in DMSO. In all instances where concentrations not indicated, compounds were added for 24 hours in total prior to analysis by flow cytometry.
FKBPFD transduced cells treated with 1 μM Shield1. ERαFD transduced cells treated with 1 μM Bazedoxifene. DHFRFD transduced cells treated with 1 mM TMP. […] Black=UTD; Gray=construct, no compound; White=construct, compound.

CD20 on-CAR = CD20 on-CAR surface expression (MFI, flow cytometry) versus Shield-1 concentration; format: cell-based
Text: FIG. 36 is series of graphs illustrating the modulation of CAR surface expression with FKBP ligand Shield-1. CD20 on-CAR T cells were stained for CAR expression and the mean fluorescence intensity (MFI, assessed by flow cytometry) of the CAR signal was plotted against the Shield-1 concentration. […] Absence of Shield-1 results in ˜60% reduction of CD20 on-CAR expression (bottom graph).

CD19rev CAR T cells = test: Titration of Shield-1 in CD19rev CAR T cells (remaining CAR+ cells, flow cytometry); format: cell-based; conditions: different doses of Shield-1 for 24 h
Description: FIG. 37 is a series of flow cytometry graphs depicting the titration of Shield-1 in CD19rev CAR. CD19rev CAR T cells (˜38% transduced) were incubated in different doses of Shield-1 for 24 h to assess dose-dependent caspase-9 acitvation. The remaining CAR+ cells were quantified by flow cytometry.

[5] = system: NALM6, a CD19+ target cell line; test: Cytokine secretion in co-culture with target cells; conditions: presence or absence of bazedoxifene; 20 hours; versus parental CAR19
CD19+ NALM6 cells = test: Proliferation assay in co-culture with target cells (FACS, counting beads); conditions: presence or absence of bazedoxifene; 4 days; versus parental CAR19

With Oc1ccc2c(c1)CC[C@H](c1ccccc1)[C@@H]2c1ccc(OCCN2CCCC2)cc1 [Lasofoxifene] the “CAR 19 expression” value [1] was “can induce CAR 19 expression”.

CC[C@H](C(=O)N1CCCC[C@H]1C(=O)O[C@H](CCc1ccc(OC)c(OC)c1)c1cccc(OCC(=O)NCC(CNC(=O)COc2cccc([C@@H](CCc3ccc(OC)c(OC)c3)OC(=O)[C@@H]3CCCCN3C(=O)[C@@H](CC)c3cc(OC)c(OC)c(OC)c3)c2)CN(C)C)c1)c1cc(OC)c(OC)c(OC)c1 [AP20187] was tested, and the “Cell death after AP20187” value (CD19 sCAR T cells [2]) was “specifically killed; also recorded: specific and robust elimination of CD19 sCAR T cells” and the “Cell death after AP20187” value (nontransduced T cells) was “no cell death”.

In the case of CC[C@H](C(=O)N1CCCC[C@H]1C(=O)O[C@H](CCc1ccc(OC)c(OC)c1)c1cccc(OCC(=O)NCCNC(=O)COc2cccc([C@@H](CCc3ccc(OC)c(OC)c3)OC(=O)[C@@H]3CCCCN3C(=O)[C@@H](CC)c3cc(OC)c(OC)c(OC)c3)c2)c1)c1cc(OC)c(OC)c(OC)c1 [AP1903], the “T cells in spleen (human CD3 staining)” value (CD19 sCAR T cells [3]; >2 weeks after AP1903 treatment) is reported as “T cells are not detectable”, the “Peripheral T cells (CD3+, CD45+)” value (CD19 sCAR T cells [3]; AP1903 10 mg/kg on day 10, versus vehicle, 10 mg/kg) is reported as “T cells are hardly detectable after suicide activation; also recorded: the T cell percentages drop in the AP1903 group” and the “sCAR T cells in spleen (quantitative PCR)” value (CD19 sCAR T cells [3]; AP1903 versus vehicle treated mice) is reported as “near-total sCAR absence in most mice”. For the same molecule, the “sCAR T cells in peripheral blood (qPCR, WPRE copy number)” value (universal sCAR T cells) was “can be depleted with AP1903 treatment; also recorded: near-total sCAR absence in 2/3 mice”.

In the case of CC[C@H](C(=O)N1CCCC[C@H]1C(=O)O[C@H](CCc1ccc(OC)c(OC)c1)c1cccc(OCCN2CCOCC2)c1)c1cc(OC)c(OC)c(OC)c1 [Shield1, Shield-1], the “Expression of the anti-CD19 scFv” value [4] is reported as “inducible in the presence of compound; also recorded: inducible by the stabilizing compound”, the “Kinetics of CAR expression following compound addition” value [4] is reported as “occurs rapidly following compound addition and is stable throughout the period of compound treatment” and the “CAR expression (MFI) versus Shield-1 concentration” value (CD20 on-CAR; CD20 on-CAR T cells) is reported as “dose-dependent increase in CAR expression”. For the same molecule, the “reduction of CD20 on-CAR expression” value (CD20 on-CAR; absence of Shield-1) was about 60% and the “caspase-9 activation and apoptosis (proportion of CAR+ cells)” value (CD19rev CAR T cells) was “lower doses of Shield-1 result in higher caspase-9 activation and increased apoptosis”.

B1: construct #106: ERα furin degron (ERmut1) fused to anti-CD19 scFV CAR; furin site GTGAEDPRPSRKRRSLGDVG (SEQ ID NO: 125) (protein)
chain: RSSLALSLTADQMVSALLDAEPPILYSEYDPTRPFSEASMMGLLTNLADRELVHMINWAKRVPGFVDLALHDQVHLLECAWMEILMIGLVWRSMEHPGKLLFAPNLLLDRNQGKCVEGGVEIFDMLLATSSRFRMMNLQGEEFVCLKSIILLNSGVYTFLSSTLKSLEEKDHIHRVLDKITDTLIHLMAKAGLTLQQQHQRLAQLLLILSHIRHMSSKRMEHLYSMKCKNVVPLSDLLLEMLDAHRLGTGAEDPRPSRKRRSLGDVGEIVMTQSPATLSLSPGERATLSCRASQDISKYLNWYQQKPGQAPRLLIYHTSRLHSGIPARFSGSGSGTDYTLTISSLQPEDFAVYFCQQGNTLPYTFGQGTKLEIKGGGGSGGGGSGGGGSQVQLQESGPGLVKPSETLSLTCTVSGVSLPDYGVSWIRQPPGKGLEWIGVIWGSETTYYSSSLKSRVTISKDNSKNQVSLKLSSVTAADTAVYYCAKHYYYGGSYAMDYWGQGTLVTVSSTTTPAPRPPTPAPTIASQPLSLRPEACRPAAGGAVHTRGLDFACDIYIWAPLAGTCGVLLLSLVITLYCKRGRKKLLYIFKQPFMRPVQTTQEEDGCSCRFPEEEEGGCELRVKFSRSADAPAYKQGQNQLYNELNLGRREEYDVLDKRRGRDPEMGGKPRRKNPQEGLYNELQKDKMAEAYSEIGMKGERRRGKGHDGLYQGLSTATKDTYDALHMQALPPR
B1 was tested, and the “levels of IFNγ” value [5] was “secrete IFNγ in the presence of CD19+ tumor cells, in a manner that is stabilizing compound dose-dependent and is noninferior to the parental CAR construct” and the Proliferation (CD19+ NALM6 cells) was “proliferate in the presence of CD19+ tumor cells, in a manner that is stabilizing compound-dependent and is noninferior to the parental CAR19 construct”.
